Three substances from PMC8274934, “FisB relies on homo-oligomerization and lipid binding to catalyze membrane fission in bacteria” (PLoS Biology, 2021) can be followed below.

Experiment [1] has as its target His6-FisB ECD (recombinant soluble extracytoplasmic domain of fission protein B, wild type) (B. subtilis). The experiment in a line: negative-stain electron microscopy; high molecular weight SEC fractions on carbon-coated grids, 2% uranyl acetate.
Experiment [2] deals with T1, iFluor555-FisB ECD (Bacillus subtilis, UniProt O32131, G123C).
T1 construct: iFluor555-maleimide on G123C; forms soluble oligomers
T1 sequence (O32131 39-254 G123C limits assumed): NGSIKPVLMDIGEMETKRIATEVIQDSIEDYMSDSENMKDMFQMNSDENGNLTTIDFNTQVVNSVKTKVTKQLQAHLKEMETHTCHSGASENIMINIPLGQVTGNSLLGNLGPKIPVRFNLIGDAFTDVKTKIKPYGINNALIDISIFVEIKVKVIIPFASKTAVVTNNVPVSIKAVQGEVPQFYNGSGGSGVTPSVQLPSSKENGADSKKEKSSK
Briefly: liposome co-flotation, fluorescence of gel band. Type of experiment: binding. The conditions noted are these: apparent, in total lipid concentration, 55% PC, 100 nM labelled protein, room temperature, 1 h.

The target of experiment [3] is T2, iFluor555-FisB ECD (Bacillus subtilis, UniProt O32131, G123C/K168D/K170E).
T2 construct: iFluor555-maleimide on G123C; forms soluble oligomers
T2 sequence (O32131 39-254 G123C/K168D/K170E limits assumed): T1 sequence (O32131 39-254 G123C limits assumed) with K130D, K132E
Briefly: liposome co-flotation, fluorescence of gel band. Type of experiment: binding. Conditions: apparent; in total lipid concentration; liposomes 45 mole % CL, 55% PC; 100 nM labelled protein; room temperature, 1 h; read-out: KdKK.

Where a chain is given by its changes, count along the chain named.

Take “His6-FisB ECD (recombinant soluble extracytoplasmic domain of fission protein B, wild type) (domain or fragment)”: the stoichiometry N (in general, the number of molecules, sites or subunits per partner or assembly) in experiment [1] was found to be 40 copies. For cardiolipin [CL], the Kd on iFluor555-FisB ECD [2] (liposomes 45 mole % CL) came out at 1 µM; on iFluor555-FisB ECD [3], 9.1 µM. Turning to phosphatidylglycerol [PG], the Kd at iFluor555-FisB ECD [2] (liposomes 45 mole % PG) worked out at 3.6 µM.
